One assay deals with human V2 receptor (Homo sapiens, UniProt P30518). The experiment in a line: In-vitro receptor binding assay (3H-arginine-8-vasopressin), V2. How it is done: (§1) (A) In-Vitro Binding Assay […] The reaction plates are allowed to sit at room temperature for one hour. The samples are filtered through Unifilter GF/C plates (presoaked in 0.3 polyethyleneimine). The plates are washed 5 times with cold physiological saline containing 0.05% Tween 20. After drying, the bottom of the filter plates are sealed and 0.025 ml of Microscint-20 is added to each filter. The top of the plate is sealed, and the plate is counted. Non-specific binding is determined by the addition of 1.25 μM […]-vasopressin in those wells. % Inh. is calculated as follows: […]
Chain of human V2 receptor (P30518 whole entry): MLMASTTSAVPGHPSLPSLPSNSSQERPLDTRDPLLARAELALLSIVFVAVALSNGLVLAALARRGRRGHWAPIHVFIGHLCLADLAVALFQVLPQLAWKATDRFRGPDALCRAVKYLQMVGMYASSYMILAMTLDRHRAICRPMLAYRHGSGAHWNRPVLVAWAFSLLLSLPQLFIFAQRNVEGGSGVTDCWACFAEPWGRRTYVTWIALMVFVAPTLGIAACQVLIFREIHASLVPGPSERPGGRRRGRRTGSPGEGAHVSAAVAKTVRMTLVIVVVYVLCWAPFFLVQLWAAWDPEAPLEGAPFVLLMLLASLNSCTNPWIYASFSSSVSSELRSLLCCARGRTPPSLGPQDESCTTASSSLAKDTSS

For a further assay, the target named is V1a (Homo sapiens, UniProt P37288). The experiment in a line: In-vitro receptor binding assay (3H-arginine-8-vasopressin), V1a. On the procedure: as §1
Chain of V1a (P37288 whole entry): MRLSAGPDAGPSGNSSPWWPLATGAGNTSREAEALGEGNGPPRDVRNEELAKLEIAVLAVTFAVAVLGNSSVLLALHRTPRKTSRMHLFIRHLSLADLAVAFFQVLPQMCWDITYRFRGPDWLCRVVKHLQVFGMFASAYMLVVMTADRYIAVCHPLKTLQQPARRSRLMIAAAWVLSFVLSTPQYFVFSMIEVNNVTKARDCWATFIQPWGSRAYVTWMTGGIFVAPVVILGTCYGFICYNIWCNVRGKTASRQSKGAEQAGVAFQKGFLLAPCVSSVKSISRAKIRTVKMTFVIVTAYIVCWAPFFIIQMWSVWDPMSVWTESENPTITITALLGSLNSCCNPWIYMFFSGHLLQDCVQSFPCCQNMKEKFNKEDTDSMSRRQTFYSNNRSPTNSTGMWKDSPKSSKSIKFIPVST
Setting [1] is: @ 10 μM, read-out: Receptor Binding V2 (% Inh. @ concentration in μM).
Setting [2] is: @ 0.1 μM, read-out: Receptor Binding V1a (% Inh. @ concentration in μM).

The structures appear in SMILES notation.

A word on the IC50: it is the point on the concentration scale where inhibition reaches its midpoint. As for `O=C(Nc1ccc(C(=O)N2CCC3(C=CCCC3)Cc3ccccc32)cc1)c1ccccc1F` (single isomer, unassigned) [Compound 108], the half-inhibitory concentration (IC50) at human V2 receptor was 0.57 µM; on V1a, 0.024 µM.
Turning to `O=C(Nc1ccc(C(=O)N2CCC3(C=CCCC3)Cc3ccccc32)cc1)c1ccccc1F` (single isomer, unassigned) [Compound 109], the half-inhibitory concentration (IC50) on human V2 receptor came to 0.3 µM; on V1a it was 0.014 µM.
Regarding `O=CC1=CC2(CC1)CCN(C(=O)c1ccc(NC(=O)c3ccccc3-c3ccccc3)cc1)c1ccccc1C2` (stereo not shown) [Compound 2, 4-(2-Phenylbenzoyl-4-aminobenzoyl)-3′-(formyl)-4-aza-[6,4]-spiro-[5,6]-benzoundec-2′-ene], the concentration for half-maximal inhibition (IC50) on human V2 receptor was 0.029 µM; on V1a, 0.016 µM.
Turning to `O=C(O)C1=CC2(CC1)CCN(C(=O)c1ccc(NC(=O)c3ccccc3F)cc1)c1ccccc1C2` (stereo not shown) [Compound 7, 4-(2-Fluorobenzoyl-4-aminobenzoyl)-3′-(carboxyl)-4-aza-[6,4]-spiro-[5,6]-benzoundec-2′-ene], the “Receptor Binding V2 (% Inh. @ concentration in μM)” value on human V2 receptor (@ 0.1 μM) came to 15% @ 0.1. Further, the “Receptor Binding V1a (% Inh. @ concentration in μM)” value at V1a (@ 0.1 μM) amounted to 43% @ 0.1.
Turning to `O=C(O)CNC(=O)C1=CC2(CC1)CCN(C(=O)c1ccc(NC(=O)c3ccccc3-c3ccccc3)cc1)c1ccccc1C2` (stereo not shown) [Compound 10], the IC50 stood at 0.018 µM on human V2 receptor and 0.024 µM on V1a.
Take `Cc1ccc(F)cc1C(=O)Nc1ccc(C(=O)N2CCC3(C=C(C(=O)NCCO)CC3)Cc3ccccc32)c(Cl)c1` (stereo not shown) [Compound 11]: the 50% inhibitory concentration (IC50) on human V2 receptor was 0.01 µM; at V1a it was 0.028 µM.
In the same order, the values of `COC(=O)CNC(=O)C1=CC2(CC1)CCN(C(=O)c1ccc(NC(=O)c3ccccc3-c3ccccc3)cc1)c1ccccc1C2` (stereo not shown) [Compound 12] are 0.018 µM and 0.013 µM.
Consider `N#Cc1ccc(C(=O)N2CCC3(CCCCC3)Cc3ccccc32)cc1` [Compound 24], for which the inhibition at 10 µM at human V2 receptor (setting [1]) was determined as 26%. At V1a, this compound showed a 50% inhibitory concentration (IC50) of 0.8 µM.
In the same order, the values of `Nc1ccc(C(=O)N2CCC3(CCCCC3)Cc3ccccc32)cc1` [Compound 25] are 7% and 10 µM.
`Cc1ccccc1C(=O)Nc1ccc(C(=O)N2CCC3(CCCCC3)Cc3ccccc32)cc1` [Compound 28]: at human V2 receptor (@ 10 μM), the “Receptor Binding V2 (% Inh. @ concentration in μM)” value came out at 1% @ 10. At V1a, the IC50 came out at 0.25 µM.
`COc1ccc(C(=O)N2CCC3(CCCCC3=O)Cc3ccccc32)cc1` (stereo not shown) [Compound 29]: the inhibition at 1 µM on human V2 receptor (@ 1 μM, read-out: Receptor Binding V2 (% Inh. @ concentration in μM)) was 8%. Also, the half-maximal inhibitory concentration (IC50) at V1a turned out to be 0.013 µM.
In the case of `O=C(Nc1ccc(C(=O)N2CCC3(CCCCC3=O)Cc3ccccc32)cc1)c1ccccc1-c1ccccc1` (stereo not shown) [Compound 30, 4-(2-Phenylbenzoyl-4-aminobenzoyl)-4-aza-2′-oxo-[6,5]-spiro-[5,6]-benzododecane], the IC50 at human V2 receptor is 0.033 µM; on V1a it was 0.035 µM.
In the same order, the values of `O=C(Nc1ccc(C(=O)N2CCC3(CCCCC3=O)Cc3ccccc32)cc1)c1ccccc1-c1ccccc1` (stereo not shown) [Compound 31] are 0.054 µM and 0.021 µM.
On to `O=C(Nc1ccc(C(=O)N2CCC3(CCCCC3O)Cc3ccccc32)cc1)c1ccccc1-c1ccccc1` (stereo not shown) [Compound 32], for which the IC50 on human V2 receptor stood at 0.028 µM; at V1a, 0.061 µM.
On to `O=C(c1ccccc1)N1CCC2(C=CCCC2)Cc2ccccc21` (stereo not shown) [Compound 34], for which, on V1a, the half-inhibitory concentration (IC50) came out at 0.65 µM.
On to `O=C(c1ccncc1)N1CCC2(C=CCCC2)Cc2ccccc21` (stereo not shown) [Compound 35], for which the IC50 at human V2 receptor is more than 25 µM; at V1a it was 1.4 µM.
Regarding `O=C(c1ccc(C(F)(F)F)cc1)N1CCC2(C=CCCC2)Cc2ccccc21` (stereo not shown) [Compound 38], the “Receptor Binding V2 (% Inh. @ concentration in μM)” value on human V2 receptor (@ 10 μM) was found to be 35% @ 10. The same compound had an IC50 at V1a of 1.6 µM.
For the compound `O=C(c1ccc(Cl)cc1)N1CCC2(C=CCCC2)Cc2ccccc21` (stereo not shown) [Compound 39], the figures for the half-maximal inhibitory concentration (IC50) at human V2 receptor and at V1a were 10 µM and 1.1 µM, respectively.
Regarding `O=C(c1ccc(I)cc1)N1CCC2(C=CCCC2)Cc2ccccc21` (stereo not shown) [Compound 40], the “Receptor Binding V2 (% Inh. @ concentration in μM)” value on human V2 receptor (@ 10 μM) is given as 27% @ 10. The IC50 at V1a was found to be 0.57 µM.
In the case of `Cc1ccc(C(=O)N2CCC3(C=CCCC3)Cc3ccccc32)cc1` (stereo not shown) [Compound 41], the “Receptor Binding V2 (% Inh. @ concentration in μM)” value at human V2 receptor (@ 10 μM) turned out to be 0% @ 10. The IC50 on V1a amounted to 0.32 µM.
For `NCc1ccc(C(=O)N2CCC3(C=CCCC3)Cc3ccccc32)cc1` (stereo not shown) [Compound 42], on human V2 receptor (@ 10 μM), the “Receptor Binding V2 (% Inh. @ concentration in μM)” value amounted to 24% @ 10. Moreover, at V1a (@ 10 μM), the “Receptor Binding V1a (% Inh. @ concentration in μM)” value worked out at 0% @ 10.
Regarding `O=C(c1ccc(F)c(F)c1)N1CCC2(C=CCCC2)Cc2ccccc21` (stereo not shown) [Compound 43], the inhibition at 10 µM on human V2 receptor (setting [1]) amounted to 42%. Further, the IC50 at V1a worked out at 0.68 µM.
For the compound `O=C(c1ccc(F)cc1)N1CCC2(C=CCCC2)Cc2ccccc21` (stereo not shown) [Compound 44], at human V2 receptor (@ 10 μM), the “Receptor Binding V2 (% Inh. @ concentration in μM)” value is on record as 42% @ 10.
On to `CN(C)c1ccc(C(=O)N2CCC3(C=CCCC3)Cc3ccccc32)cc1` (stereo not shown) [Compound 45], for which the IC50 at human V2 receptor stood at 10 µM; on V1a, 0.11 µM.
For the compound `O=C(c1cccc(Cl)c1)N1CCC2(C=CCCC2)Cc2ccccc21` (stereo not shown) [Compound 46], on human V2 receptor (setting [1]), the inhibition at 10 µM was determined as 33%. For the same compound, on V1a, the concentration for half-maximal inhibition (IC50) was determined as 3.5 µM.
Take `COc1ccc(C(=O)Nc2ccc(C(=O)N3CCC4(C=CCCC4)Cc4ccccc43)cc2)cc1OC` (stereo not shown) [Compound 97]: the “Receptor Binding V2 (% Inh. @ concentration in μM)” value on human V2 receptor (@ 1 μM) amounted to 2% @ 1.
Consider `COc1cc(-n2ccc(C(=O)O)c2)ccc1C(=O)N1CCC2(C=C(C(=O)NCCN(C)C)CC2)Cc2ccccc21` (stereo not shown) [Compound 200], for which the inhibition at 0.1 µM at V1a (setting [2]) turned out to be 0%.
Same read-out and setting: under `COC(=O)C1=CC2(CC1)CCN(C(=O)c1cc(OC)c(OC)c(OC)c1)c1ccccc1C2` (stereo not shown) [Compound 203] stands 3%; under `CCOC(=O)Oc1c(OC)cc(C(=O)N2CCC3(C=C(C(=O)OC)CC3)Cc3ccccc32)cc1OC` (stereo not shown) [Compound 204], 0%.
Turning to `CCCCOc1ccc(C(=O)N2CCC3(C=C(C(=O)OC)CC3)Cc3ccccc32)cc1` (stereo not shown) [Compound 205], the IC50 at V1a turned out to be 0.14 µM.
In the case of `CCOC(=O)Oc1c(OC)cc(C(=O)N2CCC3(C=CCCC3)Cc3ccccc32)cc1OC` (stereo not shown) [Compound 206, 4-(4-Ethoxycarboyloxy-3,5-dimethoxybenzoyl)-4-aza-[6,5]-spiro-[5,6]-benzododec-2′-ene], on V1a (setting [2]), the inhibition at 0.1 µM was found to be 9%.
`Cc1ccn(-c2ccc(C(=O)N3CCC4(C=C(C(=O)N5CCN(C)CC5)CC4)Cc4ccccc43)cc2N(C)C)n1` (stereo not shown) [Compound 214]: at V1a (setting [2]), the inhibition at 0.1 µM was determined as 48%.
Turning to `COC(=O)C1=CC2(CC1)CCN(C(=O)c1ccc(-n3ccc(C(C)=O)c3)c(OC)c1)c1ccccc1C2` (stereo not shown) [Compound 215], on V1a (setting [2]), the inhibition at 0.1 µM was found to be 64%.
Regarding `COc1cc(C(=O)N2CCC3(C=C(C(=O)N4CCN(C)CC4)CC3)Cc3ccccc32)ccc1-n1ccc(C(C)=O)c1` (stereo not shown) [Compound 216], at V1a (setting [2]), the inhibition at 0.1 µM came out at 6%.
The same measure, in the same setting: under `Cc1ccn(-c2ccc(C(=O)N3CCC4(C=C(C(=O)N5CCN(C)CC5)CC4)Cc4ccccc43)cc2)n1` (stereo not shown) [Compound 217] stands 42%.
Consider `O=C(O)C1=CC2(CC1)CCN(C(=O)c1ccc(NC(=O)c3cc(F)ccc3F)cc1)c1ccccc1C2` (stereo not shown) [Compound 219], for which the inhibition at 0.2 µM at V1a (@ 0.2 μM, read-out: Receptor Binding V1a (% Inh. @ concentration in μM)) amounted to 48%.
In the case of `CN(C)CCNC(=O)C1=CC2(CC1)CCN(C(=O)c1ccc(NC(=O)c3cc(F)ccc3F)cc1)c1ccccc1C2` (stereo not shown) [Compound 220], the half-inhibitory concentration (IC50) at V1a was 0.013 µM.
As to `CN(C)CCCNC(=O)C1=CC2(CC1)CCN(C(=O)c1ccc(NC(=O)c3cc(F)ccc3F)cc1)c1ccccc1C2` (stereo not shown) [Compound 221], the IC50 on V1a was 0.009 µM.

The record behind these values is patent US7691844B2, “Nonpeptide substituted spirobenzoazepines as vasopressin antagonists” (Ortho-McNeil Pharmaceutical, Inc., priority 2000, dated 2010).
